Measurements from PubChem BioAssay (NCI).
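1) Cells in 96-well plates. 2) Compound, 48 h, 5 concentrations. 3) Linear interpolation between surrounding doses. 4) Unreached endpoint = highest concentration. At the GI50, growth is halved. TGI: concentration producing complete growth inhibition.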

Legend:
Experiment in all cases: DTP human tumour cell line panel, 48 h
OVCAR-8 ovarian = tested on: OVCAR-8 ovarian
MALME-3M melanoma = tested on: MALME-3M melanoma
OVCAR-3 ovarian = tested on: OVCAR-3 ovarian
K-562 leukemia = tested on: K-562 leukemia
A498 renal = tested on: A498 renal
HOP-62 NSCLC = tested on: HOP-62 NSCLC
MOLT-4 leukemia = tested on: MOLT-4 leukemia
IGROV1 ovarian = tested on: IGROV1 ovarian
SK-OV-3 ovarian = tested on: SK-OV-3 ovarian
NCI-H522 lung = tested on: NCI-H522 lung
MCF7 breast = tested on: MCF7 breast
SK-MEL-2 melanoma = tested on: SK-MEL-2 melanoma
M14 melanoma = tested on: M14 melanoma
HCT-116 colon = tested on: HCT-116 colon
A549 NSCLC = tested on: A549 NSCLC
T-47D breast = tested on: T-47D breast
COLO 205 colon = tested on: COLO 205 colon
SK-MEL-28 melanoma = tested on: SK-MEL-28 melanoma
BT-549 breast = tested on: BT-549 breast
UACC-257 melanoma = tested on: UACC-257 melanoma
SF-295 CNS = tested on: SF-295 CNS
NCI-H23 lung = tested on: NCI-H23 lung
RXF 393 renal = tested on: RXF 393 renal
SR leukemia = tested on: SR leukemia
NCI/ADR-RES ovarian = tested on: NCI/ADR-RES ovarian
LOX IMVI melanoma = tested on: LOX IMVI melanoma
U251 CNS = tested on: U251 CNS
MDA-MB-231 breast = tested on: MDA-MB-231 breast
RPMI-8226 leukemia = tested on: RPMI-8226 leukemia
SF-539 CNS = tested on: SF-539 CNS
SNB-19 CNS = tested on: SNB-19 CNS
EKVX NSCLC = tested on: EKVX NSCLC
ACHN renal = tested on: ACHN renal
PC-3 prostate = tested on: PC-3 prostate
OVCAR-4 ovarian = tested on: OVCAR-4 ovarian
SNB-75 CNS = tested on: SNB-75 CNS
CCRF-CEM leukemia = tested on: CCRF-CEM leukemia
SF-268 CNS = tested on: SF-268 CNS
CAKI-1 renal = tested on: CAKI-1 renal
KM12 colon = tested on: KM12 colon
HS 578T breast = tested on: HS 578T breast
HCT-15 colon = tested on: HCT-15 colon
MDA-MB-468 breast = tested on: MDA-MB-468 breast
MDA-MB-435 = tested on: MDA-MB-435
SN12C renal = tested on: SN12C renal
HOP-92 NSCLC = tested on: HOP-92 NSCLC
NCI-H226 lung = tested on: NCI-H226 lung
786-0 renal = tested on: 786-0 renal
NCI-H460 lung = tested on: NCI-H460 lung
HCC-2998 colon = tested on: HCC-2998 colon
OVCAR-5 ovarian = tested on: OVCAR-5 ovarian
UO-31 renal = tested on: UO-31 renal
HL-60(TB) leukemia = tested on: HL-60(TB) leukemia
HT29 colon = tested on: HT29 colon
DU-145 prostate = tested on: DU-145 prostate
SW-620 colon = tested on: SW-620 colon
UACC-62 melanoma = tested on: UACC-62 melanoma
TK-10 renal = tested on: TK-10 renal
SK-MEL-5 melanoma = tested on: SK-MEL-5 melanoma

In the case of `CCc1ccccc1NC(=O)N/C(N)=N/c1nc2ccccc2s1`, the GI50 (OVCAR-8 ovarian) is reported as 37 nM, the TGI (OVCAR-8 ovarian) is reported as 3520 nM and the GI50 (MALME-3M melanoma) is reported as 62.2 nM. For the same compound, the TGI (MALME-3M melanoma) was 11300 nM, the GI50 (OVCAR-3 ovarian) was 39.6 nM and the TGI (OVCAR-3 ovarian) was 1550 nM. For the same compound, the GI50 (K-562 leukemia) was 23.3 nM, the TGI (K-562 leukemia) was 14400 nM and the GI50 (A498 renal) was 16400 nM. For the same compound, the TGI (A498 renal) was 45600 nM, the GI50 (HOP-62 NSCLC) was 69.6 nM and the TGI (HOP-62 NSCLC) was 4550 nM. For the same compound, the GI50 (MOLT-4 leukemia) was 62.8 nM, the TGI (MOLT-4 leukemia) was 18700 nM and the GI50 (IGROV1 ovarian) was 56.7 nM. It also gave a TGI (IGROV1 ovarian) of 15200 nM, a GI50 (SK-OV-3 ovarian) of 150 nM and a TGI (SK-OV-3 ovarian) of 33600 nM. It also gave a GI50 (NCI-H522 lung) of less than 16.7 nM, a TGI (NCI-H522 lung) of 90 nM and a GI50 (MCF7 breast) of 32.9 nM. It also gave a TGI (MCF7 breast) of 12300 nM, a GI50 (SK-MEL-2 melanoma) of 33.8 nM and a TGI (SK-MEL-2 melanoma) of 10800 nM. For the same compound, the GI50 (M14 melanoma) was 28.6 nM, the TGI (M14 melanoma) was 911 nM and the GI50 (HCT-116 colon) was 37.7 nM. It also gave a TGI (HCT-116 colon) of 1470 nM, a GI50 (A549 NSCLC) of 64 nM and a TGI (A549 NSCLC) greater than 38800 nM. For the same compound, the GI50 (T-47D breast) was 15100 nM, the TGI (T-47D breast) was greater than 100000 nM and the GI50 (COLO 205 colon) was 29.4 nM. For the same compound, the TGI (COLO 205 colon) was 94 nM, the GI50 (SK-MEL-28 melanoma) was 2830 nM and the TGI (SK-MEL-28 melanoma) was 21300 nM. It also gave a GI50 (BT-549 breast) of 91 nM, a TGI (BT-549 breast) of 1790 nM and a GI50 (UACC-257 melanoma) of 4670 nM. The TGI (UACC-257 melanoma) was greater than 54400 nM, the GI50 (SF-295 CNS) was 23.4 nM and the TGI (SF-295 CNS) was 2040 nM. The GI50 (NCI-H23 lung) was 45.4 nM, the TGI (NCI-H23 lung) was 5480 nM and the GI50 (RXF 393 renal) was 22.5 nM. For the same compound, the TGI (RXF 393 renal) was 7530 nM, the GI50 (SR leukemia) was 120 nM and the TGI (SR leukemia) was 21600 nM. The GI50 (NCI/ADR-RES ovarian) was 24.4 nM, the TGI (NCI/ADR-RES ovarian) was 64.3 nM and the GI50 (LOX IMVI melanoma) was 43.1 nM. It also gave a TGI (LOX IMVI melanoma) of 4620 nM, a GI50 (U251 CNS) of 37 nM and a TGI (U251 CNS) of 5640 nM. It also gave a GI50 (MDA-MB-231 breast) of 40.5 nM, a TGI (MDA-MB-231 breast) of 598 nM and a GI50 (RPMI-8226 leukemia) of 44.5 nM. The TGI (RPMI-8226 leukemia) was 21100 nM, the GI50 (SF-539 CNS) was 21.1 nM and the TGI (SF-539 CNS) was 64.2 nM. It also gave a GI50 (SNB-19 CNS) of 51.7 nM, a TGI (SNB-19 CNS) of 14600 nM and a GI50 (EKVX NSCLC) of 50.3 nM. It also gave a TGI (EKVX NSCLC) of 16100 nM, a GI50 (ACHN renal) of 79.3 nM and a TGI (ACHN renal) of 6210 nM. The GI50 (PC-3 prostate) was 52.8 nM, the TGI (PC-3 prostate) was 18800 nM and the GI50 (OVCAR-4 ovarian) was 1670 nM. For the same compound, the TGI (OVCAR-4 ovarian) was 24700 nM, the GI50 (SNB-75 CNS) was less than 18 nM and the TGI (SNB-75 CNS) was 4640 nM. For the same compound, the GI50 (CCRF-CEM leukemia) was 38.2 nM, the TGI (CCRF-CEM leukemia) was 13500 nM and the GI50 (SF-268 CNS) was 336 nM. The TGI (SF-268 CNS) was greater than 100000 nM, the GI50 (CAKI-1 renal) was 63.1 nM and the TGI (CAKI-1 renal) was 7200 nM. The GI50 (KM12 colon) was 38.1 nM, the TGI (KM12 colon) was 11100 nM and the GI50 (HS 578T breast) was 28.1 nM. For the same compound, the TGI (HS 578T breast) was 7270 nM, the GI50 (HCT-15 colon) was 29.3 nM and the TGI (HCT-15 colon) was 7030 nM. It also gave a GI50 (MDA-MB-468 breast) of 23.3 nM, a TGI (MDA-MB-468 breast) of 62.5 nM and a GI50 (MDA-MB-435) of less than 14.6 nM. The TGI (MDA-MB-435) was 38.9 nM, the GI50 (SN12C renal) was 43.8 nM and the TGI (SN12C renal) was 6910 nM. For the same compound, the GI50 (HOP-92 NSCLC) was 3090 nM, the TGI (HOP-92 NSCLC) was 29600 nM and the GI50 (NCI-H226 lung) was 144 nM. For the same compound, the TGI (NCI-H226 lung) was 1520 nM, the GI50 (786-0 renal) was 89.8 nM and the TGI (786-0 renal) was 5140 nM. The GI50 (NCI-H460 lung) was 35.4 nM, the TGI (NCI-H460 lung) was 3820 nM and the GI50 (HCC-2998 colon) was 29.1 nM. The TGI (HCC-2998 colon) was 3050 nM, the GI50 (OVCAR-5 ovarian) was 53.3 nM and the TGI (OVCAR-5 ovarian) was 12000 nM. The GI50 (UO-31 renal) was 97.9 nM, the TGI (UO-31 renal) was 34600 nM and the GI50 (HL-60(TB) leukemia) was 33.4 nM. For the same compound, the TGI (HL-60(TB) leukemia) was 6310 nM, the GI50 (HT29 colon) was 31.6 nM and the TGI (HT29 colon) was 135 nM. It also gave a GI50 (DU-145 prostate) of 48.3 nM, a TGI (DU-145 prostate) of 2500 nM and a GI50 (SW-620 colon) of 42.2 nM. The TGI (SW-620 colon) was 15700 nM, the GI50 (UACC-62 melanoma) was 38.3 nM and the TGI (UACC-62 melanoma) was 22700 nM. For the same compound, the GI50 (TK-10 renal) was 4490 nM, the TGI (TK-10 renal) was 50000 nM and the GI50 (SK-MEL-5 melanoma) was 31.1 nM. For the same compound, the TGI (SK-MEL-5 melanoma) was 116 nM.
